These results are taken from patent publication US20240402196A1 (Exact Sciences Corporation, priority 2018, published 2024).

Experiment [1] deals with T1, hemoglobin in stool samples (Homo sapiens, UniProt P68871+P69905). Briefly: Accelerated shipping simulation (35C 16 hour challenge), hemoglobin % recovery by ELISA.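 Also: stool hemoglobin measured by ELISA before and after thermal-cycler shipping stress, stability given as percent of pre-stress hemoglobin recovered afterwards.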 Also noted: To assess the stability of hemoglobin in stool samples, samples were exposed to simulated shipping stress conditions; from tissue; host or cells: stool samples.
The next experiment has as its target T2, Hb (Homo sapiens, UniProt P68871+P69905).
T2 construct: To assess the stability of hemoglobin in stool samples, samples were exposed to simulated shipping stress conditions; from tissue; host or cells: stool samples
Briefly: Appendix B additive screen, % Hb Recovery.

Experiment [2] deals with T1, hemoglobin in stool samples. The experiment is described as follows: 3-Day extreme temperature shipping simulation, hemoglobin % recovery by ELISA. Also noted: from tissue; host or cells: stool samples. The procedure: (§1) To assess the stability of hemoglobin in stool samples, samples were exposed to simulated shipping stress conditions using a thermal cycler. […] An ELISA based detection method is used to determine the hemoglobin concentrations of samples before and after exposure to the shipping simulation. Hemoglobin stability is calculated as a % recovery of hemoglobin after the samples have been exposed to the shipping simulation.
As an additional challenge, a shipping simulation meant to represent a “worst case” scenario was created using extreme temperatures.

Experiment [3] has the same target. Briefly: 7-Day shipping simulation, hemoglobin % recovery by ELISA. Also on record: from tissue; host or cells: stool samples. As for the experimental part: as §1
To assess the stability of hemoglobin in stool samples beyond 3 days, a 7-Day shipping simulation was created.

Experiment [4] has the same target. The experiment is described as follows: 3-Day shipping simulation, hemoglobin % recovery by ELISA.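 Also: stool samples put through shipping stress in a thermal cycler, hemoglobin quantified by ELISA before and after, stability given as post-stress % of the pre-stress level.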 Also noted: from tissue; host or cells: stool samples.
Experiment [5] shares this target. The experiment is described as follows: Accelerated shipping simulation (35C 16 hour challenge), hemoglobin % recovery by ELISA. Also on record: from tissue; host or cells: stool samples.
The target in another experiment is T3, hemoglobin (Hb) (Homo sapiens, UniProt P68871+P69905).
T3 construct: To assess the stability of hemoglobin in stool samples, samples were exposed to simulated shipping stress conditions; from tissue; host or cells: stool samples
The experiment is described as follows: Appendix B: additives in Hb Collection Buffer, % Hb Recovery.

The target in experiment [6] is T1, hemoglobin in stool samples. Briefly: 7-Day modified shipping simulation, hemoglobin % recovery by ELISA. Also noted: from tissue; host or cells: stool samples.
The target of a further experiment is T4, hemoglobin (Homo sapiens, UniProt P68871+P69905).
T4 construct: To assess the stability of hemoglobin in stool samples, samples were exposed to simulated shipping stress conditions; from tissue; host or cells: stool samples
The experiment is described as follows: Appendix B additive screen in Hb Collection Buffer, % Hb Recovery.

The mark [7] stands for this setting: additive concentrations as in the 10th table.
[8] abbreviates: additive concentrations as in the 9th table.
Where [9] appears, read: additive concentrations as in the 8th table.
The mark [10] stands for this setting: concentrations and buffer pH 6.5 or 7.4 as in the 15th table.
Setting [11] is: concentrations and buffer pH 6.5 or 7.4 as in the 14th table.
Setting [12] is: concentrations and buffer pH 6.5 or 7.4 as in the 13th table.

“Also recorded” adds a separate entry of the source.

T2 sequence (P69905 2-142 limits assumed): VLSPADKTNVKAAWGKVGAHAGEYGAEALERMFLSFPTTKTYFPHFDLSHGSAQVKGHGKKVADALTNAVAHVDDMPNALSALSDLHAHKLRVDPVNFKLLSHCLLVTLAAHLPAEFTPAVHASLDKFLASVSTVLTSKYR
T2 sequence (P68871 2-147 limits assumed): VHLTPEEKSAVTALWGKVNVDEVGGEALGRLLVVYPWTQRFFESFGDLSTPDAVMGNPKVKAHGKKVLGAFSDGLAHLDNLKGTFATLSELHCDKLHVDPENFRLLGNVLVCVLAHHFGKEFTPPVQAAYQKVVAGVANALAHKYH
T3 sequence (P69905 2-142 limits assumed): as the sequence (P69905 2-142 limits assumed) above
T3 sequence (P68871 2-147 limits assumed): as the sequence (P68871 2-147 limits assumed) above
T1 sequence (P69905 2-142 limits assumed): as the sequence (P69905 2-142 limits assumed) above
T1 sequence (P68871 2-147 limits assumed): as the sequence (P68871 2-147 limits assumed) above
T4 sequence (P69905 2-142 limits assumed): as the sequence (P69905 2-142 limits assumed) above
T4 sequence (P68871 2-147 limits assumed): as the sequence (P68871 2-147 limits assumed) above

Take `O=C(O)[C@@H](CO)O[C@@H]1O[C@H](CO)[C@@H](O)[C@H](O)[C@@H]1O`: the Results entry in experiment [1] (additive concentration 0.377 mM) and in experiment [1] (additive concentration 1 mM) was “No Improvement” in each case.
Consider `C[N+](C)(C)CC(=O)O` [Betaine], for which the Results entry (on Hb; in experiment [4] (Additive Concentration 1M); in [4] (additive concentration 0.05M); in experiment [4] (additive concentration 0.5M); in experiment [4] (additive concentration 1.25M); in [4] (additive concentration 3M)) was “Betaine shows improvement” each time. Also, the Results result was “Betaine shows improvement” in experiment [4] (additive concentration 3.5M); “Betaine shows improvement” in experiment [4] (additive concentration 3.75M); “Betaine shows improvement” in [4] (additive concentration 4M); “Betaine shows improvement” in experiment [4] (additive concentration 5M); “Betaine shows improvement” in experiment [4] (additive concentration […]); “No Improvement” in experiment [5] (additive concentration 50 uM). In addition, the Results entry is reported as “No Improvement” in [5] (additive concentration 500 uM), “No Improvement” in [5] (additive concentration 50 mM), “No Improvement” in [5] (additive concentration 96 mM) and “Improvement” in [5] (additive concentration 3.5M). Further, the “Notes (Hb stability vs Hb Collection Buffer)” value in experiment [2] (setting [7]), in [3] (setting [8]) and in [4] (setting [9]) was “Improved Hb” throughout.
Turning to `[Ca+2].[Cl-].[Cl-]` [Calcium Chloride], the Results entry is listed as “Calcium cation shows” at Hb; “No improvement; also recorded: Improvement in % Hb” on hemoglobin (Hb) (Additive Concentration 10 mM); “Calcium cation shows” in experiment [4] (Additive Concentration 10 mM); “Calcium cation shows” in experiment [4] (additive concentration 5 mM); “Calcium cation shows” in experiment [4] (additive concentration 10 mM); “Calcium cation shows” in [4] (additive concentration 20 mM). For the same molecule, the Results entry in experiment [4] (additive concentration 30 mM) is “Calcium cation shows”; in experiment [4] (additive concentration 40 mM) it was “Calcium cation shows”; in experiment [4] (additive concentration 50 mM), “Calcium cation shows”; in experiment [5] it was “Calcium cation shows; also recorded: Improvement”. Moreover, the “Notes (Hb stability vs Hb Collection Buffer)” value in experiment [2] (setting [7]), in experiment [3] (setting [8]) and in [4] (setting [9]) was “Improved Hb” in each case.
With `C=CC1=C(C)c2cc3[n-]c(cc4[n-]c(cc5nc(cc1n2)C(C)=C5C=C)c(C)c4CCC(=O)O)c(CCC(=O)O)c3C.[Cl-].[Fe+3]` [Hemin], the “Notes (Hb stability vs Hb Collection Buffer)” value in experiment [2] (setting [10]), in experiment [3] (setting [11]) and in [4] (setting [12]) was “Improved” each time. In addition, the Results result in experiment [5] (additive concentration 0.0003%, pH 6.5) was “Improvement”; in experiment [5] (additive concentration 0.0003%; pH 6.4), “Improvement in % Hb”; in experiment [5] (additive concentration 0.0003%; pH 6.5), “Improvement in % Hb”; in [5] (additive concentration 0.0003%; pH 6.6) it was “Improvement in % Hb”; in experiment [5] (additive concentration 0.0003%; pH 6.7), “Improvement in % Hb”; in experiment [5] (additive concentration 0.0003%; pH 6.8) it was “Improvement in % Hb”. Moreover, the Results result in experiment [5] (additive concentration 0.0003%; pH 6.9), in experiment [5] (additive concentration 0.0003%; pH 7.0), in experiment [5] (additive concentration 0.0003%; pH 7.1), in experiment [5] (additive concentration 0.0003%; pH 7.2), in experiment [5] (additive concentration 0.0003%; pH 7.3) and in [5] (additive concentration 0.0003%; pH 7.4) was “Improvement in % Hb” each time. For the same molecule, in experiment [5] (additive concentration 0.0003%; pH 7.5), the Results result is “Improvement in % Hb”.
`O=S(=O)([O-])[O-].[Mg+2]` [Magnesium Sulfate]: the “Notes (Hb stability vs Hb Collection Buffer)” value in experiment [2] (setting [7]), in [3] (setting [8]) and in [4] (setting [9]) was “Improved Hb” in each case. Further, the Results result is given as “Improvement in % Hb” at hemoglobin (Hb) (Additive Concentration 10 mM); “Magnesium Cation shows” in experiment [4] (Additive Concentration 10 mM); “Magnesium Cation shows” in experiment [4] (additive concentration 0.001M); “Magnesium Cation shows” in experiment [4] (additive concentration 5 mM); “Magnesium Cation shows” in experiment [4] (additive concentration 0.01M); “Magnesium Cation shows” in experiment [4] (additive concentration 10 mM). In addition, the Results entry in experiment [4] (additive concentration 20 mM) is reported as “Magnesium Cation shows”; in experiment [4] (additive concentration 30 mM), “Magnesium Cation shows”; in experiment [4] (additive concentration 40 mM), “Magnesium Cation shows”; in [4] (additive concentration 0.05M) it was “Magnesium Cation shows”; in experiment [4] (additive concentration 50 mM), “Magnesium Cation shows”; in experiment [5] (additive concentration 10 mM), “Improvement”.
Turning to `C=Cc1c(C)c2cc3[nH]c(cc4nc(cc5nc(cc1[nH]2)C(C)=C5CCC(=O)[O-])C(CCC(=O)[O-])=C4C)c(C)c3C=C.[Co+2]` [Protoporphyrin IX Co, Protoporphyrin IX Cobalt], the “Hb stability compared to the Polymedco buffer (in words)” value in [2] (additive in Hb Collection Buffer) is given as “improved Hb stability compared to the Polymedco buffer”. In addition, the “Notes (Hb stability vs Hb Collection Buffer)” value is reported as “Improved” in [2] (setting [10]); “Improved” in experiment [3] (setting [11]); “Improved Hb” in experiment [4] (3-Day and 7-Day Shipping Simulation, concentrations and pH as in the 18th table); “Improved” in [4] (setting [12]); “Improved Hb” in experiment [5] (35C 16 hour challenge; concentrations and pH as in the 19th table); “Improved Hb” in experiment [6] (3-6 μM, buffer pH 6.4-7.0 as in the 17th table). Also, the Results entry on hemoglobin (Hb) (Additive Concentration 0.1 uM) is on record as “No Improvement”; on hemoglobin (Hb) (additive concentration 5 uM), “Improvement in % Hb”; on hemoglobin (Hb) (additive concentration 10 uM) it was “Improvement in % Hb”; in experiment [5] (additive concentration 5 uM), “Improvement in % Hb”; in experiment [5] (additive concentration 5 uM, pH 6.5), “Improvement”; in [5] (additive concentration 5 uM, pH 7.4), “Improvement”. The “Hb stability (in words)” value in experiment [4] (3 and 7 day Shipping Simulations, concentrations of 2.5-10 µM, adjusted pH of 6.8) is given as “increased Hb stability”; in experiment [5] (35C 16 hour challenge; concentrations of 2.5-10 μM; adjusted pH range of 6.2-7.4), “increased Hb stability”; in experiment [6] (concentrations of 3-6 μM, adjusted pH range of 6.4-7.0), “increased Hb stability”.
`C=CC1=C(C)c2cc3[n-]c(cc4nc(cc5[n-]c(cc1n2)c(C)c5C=C)C(C)=C4CCC(=O)O)c(CCC(=O)O)c3C.[Zn+2]` [Protoporphyrin IX Zn, Protoporphyrin IX Zinc]: the “Notes (Hb stability vs Hb Collection Buffer)” value in [2] (setting [10]), in experiment [3] (setting [11]) and in [4] (setting [12]) was “Improved” in each case. In addition, the Results entry on hemoglobin (Hb) (Additive Concentration 0.001 uM) was “No Improvement”; on hemoglobin (Hb) (Additive Concentration 0.01 uM), “Improvement in % Hb”; at hemoglobin (Hb) (Additive Concentration 0.1 uM), “Improvement in % Hb”; on hemoglobin (Hb) (Additive Concentration 1 uM), “Improvement in % Hb”; on hemoglobin (Hb) (additive concentration 10 uM) it was “Improvement in % Hb”; on hemoglobin (Hb) (additive concentration 100 uM), “Improvement in % Hb”. Moreover, the Results entry was “Improvement” in experiment [5] (additive concentration 1 uM, pH 6.5) and “Improvement” in experiment [5] (additive concentration 1 uM, pH 7.4).
As for `O=NO` [Sodium Nitrite], on hemoglobin, the Results entry was “No Improvement”.
For `O=C(O)c1cccnc1` [Vitamin B3], at hemoglobin, the Results result is given as “No Improvement”.
Magnesium Gluconate: the Results entry on Hb is “No Improvement”; in experiment [4] (additive concentration 5 mM), “Magnesium Cation shows”; in [4] (additive concentration 10 mM), “Magnesium Cation shows”; in experiment [4] (additive concentration 20 mM) it was “Magnesium Cation shows”; in experiment [4] (additive concentration 30 mM), “Magnesium Cation shows”; in experiment [4] (additive concentration 40 mM), “Magnesium Cation shows”. For the same molecule, the Results entry is on record as “Magnesium Cation shows” in experiment [4] (additive concentration 50 mM), “No Improvement” in experiment [5] (additive concentration 1.2 uM), “No Improvement” in [5] (additive concentration 12 uM) and “No Improvement” in experiment [5] (additive concentration 120 uM).
